Experimental data as given in ChEMBL document CHEMBL1147633, “Structure-activity relationships of a novel class of endothelin receptor selective antagonists; 6-carboxy-2-isopropylamino-5,7-diarylcyclopenteno[1,2-b]pyridines” (Bioorg Med Chem Lett, 2004).

Experiments:
[1] = biological target: T1, Endothelin-1 receptor (Homo sapiens, UniProt P25101); experiment: Inhibitory activity against [125I]ET1 binding to human endothelin A receptor
T1 sequence (P25101 whole entry): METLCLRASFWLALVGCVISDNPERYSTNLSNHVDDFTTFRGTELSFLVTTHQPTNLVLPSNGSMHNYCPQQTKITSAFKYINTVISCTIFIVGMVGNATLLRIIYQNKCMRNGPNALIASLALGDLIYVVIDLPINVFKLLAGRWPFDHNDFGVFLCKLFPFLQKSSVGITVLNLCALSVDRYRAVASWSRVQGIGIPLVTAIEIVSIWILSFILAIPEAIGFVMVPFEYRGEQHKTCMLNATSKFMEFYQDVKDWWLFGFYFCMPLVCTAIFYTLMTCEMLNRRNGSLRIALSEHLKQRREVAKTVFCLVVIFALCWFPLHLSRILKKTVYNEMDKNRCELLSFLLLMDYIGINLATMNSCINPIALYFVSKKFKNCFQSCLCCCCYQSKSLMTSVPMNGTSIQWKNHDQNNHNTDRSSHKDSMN

[2] = biological target: Endothelin receptor, ET-A/ET-B (Homo sapiens) (UniProt P24530+P25101); experiment: Selectivity ratio of inhibitory activity towards endothelin receptor A to endothelin receptor B (ETB/ETA); type: protein assay
[3] = biological target: T2, Endothelin receptor type B (Homo sapiens, UniProt P24530); experiment: Inhibitory activity against [125I]ET1 binding to human endothelin B receptor
T2 sequence (P24530 whole entry): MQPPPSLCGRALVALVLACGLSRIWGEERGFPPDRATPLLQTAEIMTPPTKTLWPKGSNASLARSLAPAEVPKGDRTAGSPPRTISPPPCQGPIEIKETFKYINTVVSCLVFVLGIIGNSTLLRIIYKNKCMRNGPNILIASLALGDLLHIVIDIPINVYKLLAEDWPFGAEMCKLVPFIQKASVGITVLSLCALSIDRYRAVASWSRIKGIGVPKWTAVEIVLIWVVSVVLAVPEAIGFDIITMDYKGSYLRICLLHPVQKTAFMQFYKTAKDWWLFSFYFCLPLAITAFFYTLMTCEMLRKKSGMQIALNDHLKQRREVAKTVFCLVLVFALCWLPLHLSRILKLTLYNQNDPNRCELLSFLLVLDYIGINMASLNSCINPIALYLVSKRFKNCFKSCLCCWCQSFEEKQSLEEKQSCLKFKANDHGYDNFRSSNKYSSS

[4] = tested on: Rattus norvegicus; experiment: Plasma levels of compound was evaluated in rats after 8 hr of oral administration at 3 mg/kg; type: functional, organism-based; design: dose 3 mg/kg
[5] = species: Oryctolagus cuniculus; experiment: Antagonistic activity towards endothelin A receptor was evaluated using the rabbit iliac artery in presence of 3% human serum albumin; type: functional
[6] = tested on: Mus musculus; experiment: In vivo efficacy of compound was determined in mouse after intravenous administration; type: functional
[7] = tested on: Rattus norvegicus; experiment: Plasma levels of compound was evaluated in rats after 4 hr of oral administration at 3 mg/kg; type: functional, organism-based; design: dose 3 mg/kg
[8] = Bioavailability in rat (dose 3 mg/kg p.o.); type: ADME, organism-based; details: in vivo, po
[9] = tested on: Rattus norvegicus; experiment: Plasma levels of compound was evaluated in rats after 1 hr of oral administration at 3 mg/kg; type: functional, organism-based; design: dose 3 mg/kg
[10] = tested on: Rattus norvegicus; experiment: Plasma levels of compound was evaluated in rats after 8 hr of oral administration at 10 mg/kg; type: functional, organism-based; design: dose 10 mg/kg
[11] = tested on: Rattus norvegicus; experiment: Plasma levels of compound was evaluated in rats after 1 hr of oral administration at 10 mg/kg; type: functional, organism-based; design: dose 10 mg/kg
[12] = tested on: Rattus norvegicus; experiment: Plasma levels of compound was evaluated in rats after 4 hr of oral administration at 10 mg/kg; type: functional, organism-based; design: dose 10 mg/kg
[13] = Bioavailability in rat (dose 1 mg/kg i.v.); type: ADME, organism-based; details: in vivo, iv

| IC50 [1] [nM] | Selectivity ratio [2] | IC50 [3] [nM] | SMILES | also measured |
| --- | --- | --- | --- | --- |
| 0.8 | 600 | 480 | COc1ccc([C@@H]2c3nc(NC(C)C)ccc3[C@H](c3ccc4c(c3)OCO4)[C@H]2C(=O)O)c(OCc2ccccc2)c1 | – |
| 0.031 | 610 | 19 | COc1ccc([C@@H]2c3nc(NC(C)C)ccc3[C@H](c3ccc4c(c3)OCO4)[C@H]2C(=O)O)c(CCO)c1 | – |
| 0.062 | 1000 | 62 | COc1ccc([C@@H]2c3nc(NC(C)C)ccc3[C@H](c3ccc4c(c3)OCO4)[C@H]2C(=O)O)c(CO)c1 | Plasma level [4]: 19 nM; PKB [5]: 7.76; AD50 [6]: 0.12 MPK; Plasma level [7]: 94 nM; bioavailability [8]: 57%; Plasma level [9]: 130 nM |
| 0.11 | 800 | 88 | COc1ccc([C@@H]2c3nc(NC(C)C)ccc3[C@H](c3ccc4c(c3)OCO4)[C@H]2C(=O)O)c(OC(C)C)c1 | – |
| 0.41 | 240 | 100 | CCCOc1cc(OC)ccc1[C@@H]1c2nc(NC(C)C)ccc2[C@H](c2ccc3c(c2)OCO3)[C@H]1C(=O)O | – |
| 0.022 | 910 | 20 | COc1ccc([C@@H]2c3nc(NC(C)C)ccc3[C@H](c3ccc4c(c3)OCO4)[C@H]2C(=O)O)c(CCCO)c1 | – |
| 0.047 | 530 | 25 | COc1ccc([C@@H]2c3nc(NC(C)C)ccc3[C@H](c3ccc4c(c3)OCO4)[C@H]2C(=O)O)c(OC)c1 | – |
| 0.22 | 1300 | 290 | COc1ccc([C@@H]2c3nc(NC(C)C)ccc3[C@H](c3ccc4c(c3)OCO4)[C@H]2C(=O)O)c(O)c1 | – |
| 0.027 | 1600 | 43 | COc1ccc([C@@H]2c3nc(NC(C)C)ccc3[C@H](c3ccc4c(c3)OCO4)[C@H]2C(=O)O)c(CN(C)C(C)=O)c1 | Plasma level [4]: 0.4 nM; PKB [5]: 8.97; Plasma level [7]: 3 nM; Plasma level [9]: 2 nM |
| 0.065 | 350 | 23 | COc1ccc([C@@H]2c3nc(NC(C)C)ccc3[C@H](c3ccc4c(c3)OCO4)[C@H]2C(=O)O)c(CCC(C)(C)O)c1 | – |
| 0.86 | 490 | 420 | COc1ccc([C@@H]2c3nc(NC(C)C)ccc3[C@H](c3ccc4c(c3)OCO4)[C@H]2C(=O)O)c(OCC(C)C)c1 | – |
| 0.74 | 61 | 45 | CCOc1cc(OC)ccc1[C@@H]1c2nc(NC(C)C)ccc2[C@H](c2ccc3c(c2)OCO3)[C@H]1C(=O)O | – |
| 0.014 | 1000 | 14 | COc1ccc([C@@H]2c3nc(NC(C)C)ccc3[C@H](c3ccc4c(c3)OCO4)[C@H]2C(=O)O)c(CC(C)(C)O)c1 | Plasma level [10]: 110 nM; Plasma level [11]: 460 nM; AD50 [6]: 0.042 MPK; Plasma level [12]: 48 nM |
| 0.011 | – | 6 | COc1ccc([C@@H]2c3nc(NC(C)C)ccc3[C@H](c3ccc4c(c3)OCO4)[C@H]2C(=O)O)c(CC(O)CO)c1 (single isomer, unassigned) [listing 1 of 2 here] | – |
| 0.014 | – | 9.5 | COc1ccc([C@@H]2c3nc(NC(C)C)ccc3[C@H](c3ccc4c(c3)OCO4)[C@H]2C(=O)O)c(CC(C)C(=O)N(C)C)c1 (single isomer, unassigned) [listing 1 of 2 here] | – |
| – | 680 | – | COc1ccc([C@@H]2c3nc(NC(C)C)ccc3[C@H](c3ccc4c(c3)OCO4)[C@H]2C(=O)O)c(CC(C)C(=O)N(C)C)c1 (single isomer, unassigned) [listing 2 of 2 here] | – |
| – | 550 | – | COc1ccc([C@@H]2c3nc(NC(C)C)ccc3[C@H](c3ccc4c(c3)OCO4)[C@H]2C(=O)O)c(CC(O)CO)c1 (single isomer, unassigned) [listing 2 of 2 here] | – |
| 0.048 | – | 5.6 | COc1ccc([C@@H]2c3nc(NC(C)C)ccc3[C@H](c3ccc4c(c3)OCO4)[C@H]2C(=O)O)c(CC(O)CO)c1 (stereo in doubt) [listing 1 of 2 here] | – |

| IC50 [1] [nM] | Selectivity ratio [2] | IC50 [3] [nM] | SMILES | also measured |
| --- | --- | --- | --- | --- |
| 0.024 | – | 43 | COc1ccc([C@@H]2c3nc(NC(C)C)ccc3[C@H](c3ccc4c(c3)OCO4)[C@H]2C(=O)O)c(CC(C)C(=O)N(C)C)c1 (stereo in doubt) [listing 1 of 2 here] | AD50 [6]: 0.017 MPK |
| – | 1800 | – | COc1ccc([C@@H]2c3nc(NC(C)C)ccc3[C@H](c3ccc4c(c3)OCO4)[C@H]2C(=O)O)c(CC(C)C(=O)N(C)C)c1 (stereo in doubt) [listing 2 of 2 here] | Plasma level [10]: 10 nM; Plasma level [11]: 65 nM; Plasma level [12]: 7 nM |
| – | 120 | – | COc1ccc([C@@H]2c3nc(NC(C)C)ccc3[C@H](c3ccc4c(c3)OCO4)[C@H]2C(=O)O)c(CC(O)CO)c1 (stereo in doubt) [listing 2 of 2 here] | – |
| 0.041 | – | 54 | COc1ccc([C@@H]2c3nc(NC(C)C)ccc3[C@H](c3ccc4c(c3)OCO4)[C@H]2C(=O)O)c(CC(C)CO)c1 (stereo in doubt; form 1) [listing 1 of 2 here] | bioavailability [13]: 7.6%; PKB [5]: 8.33; AD50 [6]: 0.034 MPK |
| 0.036 | – | 61 | COc1ccc([C@@H]2c3nc(NC(C)C)ccc3[C@H](c3ccc4c(c3)OCO4)[C@H]2C(=O)O)c(OC(C)CO)c1 (stereo in doubt; form 1) [listing 1 of 2 here] | PKB [5]: 8; AD50 [6]: 0.046 MPK |
| 0.045 | – | 15.7 | CCC(CO)Cc1cc(OC)ccc1[C@@H]1c2nc(NC(C)C)ccc2[C@H](c2ccc3c(c2)OCO3)[C@H]1C(=O)O (stereo in doubt; form 1) [listing 1 of 2 here] | – |
| – | 350 | – | CCC(CO)Cc1cc(OC)ccc1[C@@H]1c2nc(NC(C)C)ccc2[C@H](c2ccc3c(c2)OCO3)[C@H]1C(=O)O (stereo in doubt; form 1) [listing 2 of 2 here] | – |
| – | 1900 | – | COCC(C)Cc1cc(OC)ccc1[C@@H]1c2nc(NC(C)C)ccc2[C@H](c2ccc3c(c2)OCO3)[C@H]1C(=O)O (stereo in doubt; form 1) | Plasma level [4]: 52 nM; Plasma level [7]: 81 nM; Plasma level [9]: 220 nM |
| – | 1300 | – | COc1ccc([C@@H]2c3nc(NC(C)C)ccc3[C@H](c3ccc4c(c3)OCO4)[C@H]2C(=O)O)c(CC(C)CO)c1 (stereo in doubt; form 1) [listing 2 of 2 here] | Plasma level [4]: 11 nM; Plasma level [7]: 22 nM; Plasma level [9]: 110 nM |
| – | 1700 | – | COc1ccc([C@@H]2c3nc(NC(C)C)ccc3[C@H](c3ccc4c(c3)OCO4)[C@H]2C(=O)O)c(OC(C)CO)c1 (stereo in doubt; form 1) [listing 2 of 2 here] | Plasma level [10]: 62 nM; Plasma level [11]: 160 nM; Plasma level [12]: 47 nM |
| 0.059 | – | 51 | COc1ccc([C@@H]2c3nc(NC(C)C)ccc3[C@H](c3ccc4c(c3)OCO4)[C@H]2C(=O)O)c(CC(C)CO)c1 (stereo in doubt; form 2) [listing 1 of 2 here] | – |
| 0.057 | – | 78 | COc1ccc([C@@H]2c3nc(NC(C)C)ccc3[C@H](c3ccc4c(c3)OCO4)[C@H]2C(=O)O)c(OC(C)CO)c1 (stereo in doubt; form 2) [listing 1 of 2 here] | PKB [5]: 7.46 |
| 0.011 | – | 25 | COCC(C)Cc1cc(OC)ccc1[C@@H]1c2nc(NC(C)C)ccc2[C@H](c2ccc3c(c2)OCO3)[C@H]1C(=O)O (stereo in doubt; form 2) [listing 1 of 2 here] | AD50 [6]: 0.042 MPK |
| 0.011 | – | 11 | CCC(CO)Cc1cc(OC)ccc1[C@@H]1c2nc(NC(C)C)ccc2[C@H](c2ccc3c(c2)OCO3)[C@H]1C(=O)O (stereo in doubt; form 2) [listing 1 of 2 here] | – |
| – | 910 | – | CCC(CO)Cc1cc(OC)ccc1[C@@H]1c2nc(NC(C)C)ccc2[C@H](c2ccc3c(c2)OCO3)[C@H]1C(=O)O (stereo in doubt; form 2) [listing 2 of 2 here] | – |
| – | 2300 | – | COCC(C)Cc1cc(OC)ccc1[C@@H]1c2nc(NC(C)C)ccc2[C@H](c2ccc3c(c2)OCO3)[C@H]1C(=O)O (stereo in doubt; form 2) [listing 2 of 2 here] | Plasma level [10]: 120 nM; Plasma level [11]: 810 nM; Plasma level [12]: 130 nM |
| – | 860 | – | COc1ccc([C@@H]2c3nc(NC(C)C)ccc3[C@H](c3ccc4c(c3)OCO4)[C@H]2C(=O)O)c(CC(C)CO)c1 (stereo in doubt; form 2) [listing 2 of 2 here] | – |
| – | – | – | COc1ccc([C@@H]2c3nc(NC(C)C)ccc3[C@H](c3ccc4c(c3)OCO4)[C@H]2C(=O)O)c(OC(C)CO)c1 (stereo in doubt; form 2) [listing 2 of 2 here] | Plasma level [10]: 69 nM; Plasma level [11]: 440 nM; Plasma level [12]: 20 nM |
